# Results from patent US9260382B2, “Methods of reducing virulence in bacteria” (priority 2010, dated 2016).
# Key:
# hrpS mRNA = assay: qRT-PCR relative mRNA level of hrpS; format: cell-based, Dickeya dadantii 3937; conditions: 0.1 mM in MM
# Description: (§1) Bacterial strains were grown in MM. Total RNA from the bacterial cells was isolated by using the TRI reagent method (Sigma, Mo.) and treated with Turbo DNA-free DNase kits (Ambion, Tex.) as described (Peng et al., 2006). An iScript cDNA Synthesis Kit (Bio-Rad, CA) was used to synthesize cDNA from 0.5 μg of treated total RNA. The Real Master Mix (Eppendorf, Westbury, N.Y.) was used for qRT-PCR reaction to quantify the cDNA level of target genes in different samples. The rplU was used as the endogenous control for data analysis. qRT-PCR data were analyzed using Relative Expression Software Tool as described (Pfaffl, M. W., Horgan, G. W., and Dempfle, L. (2002) Relative expression software tool (REST) for group-wise comparison and statistical analysis of relative expression results in real-time PCR. Nucleic Acids Res 30:e36.).
# hrpW mRNA = assay: Real-time PCR of hrpW in DC3000; format: cell-based, Pseudomonas syringae pv. tomato DC3000; conditions: HIM supplemented with 250 μM, 9 h
# Description: DC3000 was cultured in KB medium overnight at 28° C. and subcultured in HIM medium supplemented with DMSO or with 250 μM TCA for 9 h. Total bacterial RNA was isolated using RNeasy Mini Kit (QIAGEN, Valencia, Calif.) and treated with Turbo DNA-free DNase kit (Ambion, Austin, Tex.). cDNA was synthesized using iScript cDNA Synthesis Kit (Bio-Rad, Hercules, Calif.) from 0.8 μg of total RNA. The Real Master Mix SYBR ROX (5 PRIME, Gaithersburg, Md.) was used for real-time PCR reactions to quantify the cDNA level of target genes in different samples. Data were collected by the Opticon 2 system (Bio-Rad) and analyzed using Relative Expression Software Tool as described by Pfaffl and associates (Pfaffl et al. 2002). Two housekeeping genes, gyrA (PSPTO1745) and gap1 (PSPTO1287) were used as endogenous controls for data analysis. The PCR efficiencies of the primers are: gyrA, 1.93; gap1, 2.08; and hrpW, 1.93.
# [1] = system: Pseudomonas syringae pv. tomato DC3000 (HR elicitation); assay: Hypersensitive response (HR) assay in tobacco leaves; format: in vivo; conditions: Nicotiana tabacum cv. Xanthi, 18 hours post-infiltration
# Description: Bacterial cells from overnight cultures grown in KB broth were resuspended in sterile dH2O. Cell suspensions were mixed with chemicals and allowed to sit for 30 minutes before plant inoculation. Nicotiana tabacum cv. Xanthi plants were used for HR assays. Tobacco leaves were pressure infiltrated by use of a needless syringe (Fu et al. 2006) with 1×10^8 cells/ml and 25 μM, 50 μM, 100 μM, 250 μM, or 500 μM TCA. Plants were photographed and assessed for macroscopic tissue collapse indicative of HR 18 h post-inoculation.
# In DC3000, mutations in genes which encode components of the T3SS result in the inability to elicit HR in non-hosts (Collmer et al. 2000). Since TCA represses expression of hrpA (a major component of the T3SS) in vitro, the ability of TCA to suppress HR in planta was examined. DC3000 (OD600=0.1) with 25 μM, 50 μM, 100 μM, 250 μM, or 500 μM of TCA in DMSO was injected into leaves of tobacco (Nicotiana tabacum cv. Xanthi). Concentrations of DMSO which correspond to similar amounts of TCA were also injected into the tobacco plants as negative controls. Tobacco leaves were assessed for HR symptoms 18 hours post-infiltration. No visible signs of tissue damage or HR were observed when DMSO or TCA was separately infiltrated into the tobacco leaves (data not shown). […] This effect is most likely due to lack of a functional T3SS.
# [2] = system: Pseudomonas syringae pv. tomato DC3000; assay: DC3000 bacterial growth, colony counts; format: cell-based; conditions: 6 h and 9 h
# Description: To determine the maximum concentration of TCA that will inhibit hrpA promoter activity without affecting bacterial growth, DC3000 carrying phrpA was cultured in HIM and HIM supplemented with 25 μM, 50 μM, 100 μM, 250 μM, or 500 μM of TCA. Promoter activity was measured at 6 h and 9 h as mentioned above using flow cytometry. Bacterial growth was determined by withdrawing samples of each culture and spot-plating serial dilutions onto King's B agar (King et al. 1954) in tandem with promoter activity assays. Colonies were counted after 48 h of incubation at 28° C.
# HrpW protein = assay: HrpW immunoblot analysis; format: cell-based, Pseudomonas syringae pv. tomato DC3000; conditions: HIM supplemented with 250 μM
# Description: The HrpW protein level was determined by immunoblot using anti-HrpW antibody provided by Dr. Alan Collmer (Cornell University, Ithaca, N.Y.). Sample preparation was performed as previously described with modifications (Yuan and He 1996). Wild-type DC3000 was grown overnight in King's B medium at 28° C. The culture was washed with hrp-inducing medium (HIM) and resuspended in 40 ml of the same medium to an optical density (OD) at 600 nm of 0.1. To determine the effect of TCA on the HrpW protein level, TCA dissolved in DMSO was added to the culture at the final concentration of 250 μM and the culture was grown with moderate shaking at 28° C. DMSO was added to a separate culture as a negative control. After 9 h, the cells were collected by centrifugation at 4,000×g for 10 min and resuspended in 1 ml of phosphate buffered saline (PBS; 137 mM NaCl, 2.7 mM KCl, 4.3 mM Na2HPO4, and 1.47 mM KH2PO4 [pH 7.4]). […]
# hrpL mRNA = assay: qRT-PCR relative mRNA level of hrpL; format: cell-based, Dickeya dadantii 3937; conditions: MM supplemented with 0.1 mM
# Description: as §1
structure (smiles),measurement,setting,value
"O=C(O)/C=C/c1ccccc1O [Compound 006, Ortho-coumaric acid]","hrpS mRNA compared with MM alone, in words",hrpS mRNA,No significant difference
"O=C(O)/C=C/c1ccccc1 [Compound 001, trans-cinnamic acid]",hrpW mRNA relative expression ratio vs HIM alone,hrpW mRNA,0.07
same,"elicitation of HR by DC3000 in tobacco leaves, in words",[1]; infiltrated with 100 μM,unable to completely block HR
same,"elicitation of HR by DC3000 in tobacco leaves, in words",[1]; infiltrated with 250 μM,completely suppressed
same,"colony counts of DC3000 vs control culture, in words",[2]; HIM + 500 μM,slightly lower
same,"effect on growth of DC3000, in words","[2]; HIM, at or below concentrations of 250 μM",does not significantly inhibit nor enhance growth
same,"HrpW protein in culture supernatants, immunoblot, in words",HrpW protein,absent from the culture supernatants
same,"HrpW protein in whole cell lysates, immunoblot, in words",HrpW protein,undetectable in the whole cell lysates
"O=C(O)/C=C/c1ccc(O)cc1 [Compound 004, para-coumaric acid]",hrpL mRNA relative expression ratio (MM alone normalized to 1),hrpL mRNA,0.039
